In ChEMBL document CHEMBL3351521, “Benzene-1,3-dicarboxylic acid 2,5-dimethylpyrrole derivatives as multiple inhibitors of bacterial Mur ligases (MurC-MurF)” (Bioorg Med Chem, 2014):
Converted amounts (≈) assume the structure as drawn.

Columns and labels:
[1] = target: T1, UDP-N-acetylmuramoyl-tripeptide--D-alanyl-D-alanine ligase (Escherichia coli K-12) (UniProt P11880); experiment: Inhibition of Escherichia coli MurF assessed as residual enzyme activity at 250 uM after 15 mins in presence of 0.005% Triton X-114 by Malachite green assay
T1 sequence (whole entry): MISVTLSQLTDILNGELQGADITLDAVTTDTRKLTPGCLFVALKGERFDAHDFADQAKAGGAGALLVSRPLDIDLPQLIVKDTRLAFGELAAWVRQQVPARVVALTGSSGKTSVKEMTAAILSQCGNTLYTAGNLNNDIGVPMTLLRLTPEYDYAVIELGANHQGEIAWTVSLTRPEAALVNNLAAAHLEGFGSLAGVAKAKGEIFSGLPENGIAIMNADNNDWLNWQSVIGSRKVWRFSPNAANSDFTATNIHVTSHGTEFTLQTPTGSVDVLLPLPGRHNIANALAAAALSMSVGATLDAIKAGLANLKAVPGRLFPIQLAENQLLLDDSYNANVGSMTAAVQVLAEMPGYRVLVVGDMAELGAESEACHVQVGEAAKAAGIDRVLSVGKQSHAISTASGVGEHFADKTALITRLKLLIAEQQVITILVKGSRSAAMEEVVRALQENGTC

[2] = target: T2, UDP-N-acetylmuramoyl-L-alanyl-D-glutamate--2,6-diaminopimelate ligase (Escherichia coli (strain K12), UniProt P22188); experiment: Inhibition of Escherichia coli MurE after 15 mins in presence of 0.005% Triton X-114 by Malachite green assay
T2 sequence (P22188 whole entry): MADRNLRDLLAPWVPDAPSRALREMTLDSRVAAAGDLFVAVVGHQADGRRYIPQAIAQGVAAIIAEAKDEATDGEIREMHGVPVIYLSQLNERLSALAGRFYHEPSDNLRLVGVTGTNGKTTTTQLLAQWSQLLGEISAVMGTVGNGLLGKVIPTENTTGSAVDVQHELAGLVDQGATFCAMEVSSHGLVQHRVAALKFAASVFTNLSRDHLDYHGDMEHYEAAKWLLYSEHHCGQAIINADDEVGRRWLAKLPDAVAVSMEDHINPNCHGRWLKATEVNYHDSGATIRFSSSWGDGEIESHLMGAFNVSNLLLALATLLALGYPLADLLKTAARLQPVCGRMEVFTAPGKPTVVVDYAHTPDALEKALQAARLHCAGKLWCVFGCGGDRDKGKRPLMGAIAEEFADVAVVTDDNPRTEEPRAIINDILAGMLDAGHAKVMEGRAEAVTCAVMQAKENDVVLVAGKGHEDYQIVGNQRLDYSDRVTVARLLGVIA

[3] = target: T3, UDP-N-acetylmuramoylalanine--D-glutamate ligase (Escherichia coli K-12) (UniProt P14900); experiment: Inhibition of Escherichia coli MurD assessed as residual enzyme activity at 250 uM after 15 mins in presence of 0.005% Triton X-114 by Malachite green assay
T3 sequence (whole entry): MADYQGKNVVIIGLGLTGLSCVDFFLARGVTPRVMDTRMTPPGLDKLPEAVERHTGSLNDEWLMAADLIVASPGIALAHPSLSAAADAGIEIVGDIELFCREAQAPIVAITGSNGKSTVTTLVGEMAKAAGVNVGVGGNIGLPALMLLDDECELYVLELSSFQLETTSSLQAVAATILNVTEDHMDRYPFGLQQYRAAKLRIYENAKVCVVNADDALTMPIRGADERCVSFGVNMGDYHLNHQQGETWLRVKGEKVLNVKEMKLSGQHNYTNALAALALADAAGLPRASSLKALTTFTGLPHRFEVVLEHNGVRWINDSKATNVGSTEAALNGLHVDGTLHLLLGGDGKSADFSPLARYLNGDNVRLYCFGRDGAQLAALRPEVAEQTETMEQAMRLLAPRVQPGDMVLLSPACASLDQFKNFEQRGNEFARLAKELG

[4] = target: UDP-N-acetylmuramate--L-alanine ligase (Escherichia coli K-12) (UniProt P17952); experiment: Inhibition of Escherichia coli MurC assessed as residual enzyme activity at 250 uM after 15 mins in presence of 0.005% Triton X-114 by Malachite green assay
Sequence of UDP-N-acetylmuramate--L-alanine ligase (Escherichia coli K-12) (P17952 whole entry, looked up): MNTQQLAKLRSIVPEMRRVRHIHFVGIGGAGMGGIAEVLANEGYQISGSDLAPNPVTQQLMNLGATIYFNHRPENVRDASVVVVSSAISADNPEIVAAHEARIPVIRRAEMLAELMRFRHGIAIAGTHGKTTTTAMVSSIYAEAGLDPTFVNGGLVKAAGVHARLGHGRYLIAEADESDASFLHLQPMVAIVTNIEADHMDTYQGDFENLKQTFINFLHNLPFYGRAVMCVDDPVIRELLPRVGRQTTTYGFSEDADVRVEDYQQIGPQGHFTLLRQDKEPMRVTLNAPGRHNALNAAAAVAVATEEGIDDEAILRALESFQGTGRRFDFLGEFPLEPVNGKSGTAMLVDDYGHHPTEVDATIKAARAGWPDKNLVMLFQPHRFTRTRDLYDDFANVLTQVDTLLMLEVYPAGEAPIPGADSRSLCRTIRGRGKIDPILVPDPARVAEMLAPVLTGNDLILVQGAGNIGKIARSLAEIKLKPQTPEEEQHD

[5] = target: T4, UDP-N-acetylmuramoyl-tripeptide--D-alanyl-D-alanine ligase (Escherichia coli K-12, UniProt P11880); experiment: Inhibition of Escherichia coli MurF after 15 mins in presence of 0.005% Triton X-114 by Malachite green assay
T4 sequence (P11880 whole entry): T1 sequence (whole entry)

[6] = target: T5, UDP-N-acetylmuramoylalanine--D-glutamate ligase (Escherichia coli K-12, UniProt P14900); experiment: Inhibition of Escherichia coli MurD after 15 mins in presence of 0.005% Triton X-114 by Malachite green assay
T5 sequence (P14900 whole entry): T3 sequence (whole entry)

[7] = target: UDP-N-acetylmuramate--L-alanine ligase (Escherichia coli K-12, UniProt P17952); experiment: Inhibition of Escherichia coli MurC after 15 mins in presence of 0.005% Triton X-114 by Malachite green assay
Sequence of UDP-N-acetylmuramate--L-alanine ligase (P17952 whole entry): as the sequence (P17952 whole entry, looked up) above

[8] = test system: Enterococcus faecalis; experiment: Antimicrobial activity against Enterococcus faecalis ATCC 29212 after 16 to 20 hrs; type: functional
[9] = test system: Haemophilus influenzae; experiment: Antimicrobial activity against Haemophilus influenzae ATCC 49766 after 20 to 24 hrs; type: functional
[10] = test system: Staphylococcus aureus; experiment: microbe, parasite or virus in culture; details: ATCC 29213
Description: Antimicrobial activity against Staphylococcus aureus ATCC 29213 after 16 to 20 hrs

[11] = target: T6, UDP-N-acetylmuramoyl-L-alanyl-D-glutamate--2,6-diaminopimelate ligase (Escherichia coli (strain K12)) (UniProt P22188); experiment: Inhibition of Escherichia coli MurE assessed as residual enzyme activity at 250 uM after 15 mins in presence of 0.005% Triton X-114 by Malachite green assay
T6 sequence (whole entry): T2 sequence (P22188 whole entry)

[12] = target: T5, UDP-N-acetylmuramoylalanine--D-glutamate ligase; experiment: Competitive inhibition of Escherichia coli MurD using D-Glu substrate by steady-state enzyme kinetics assay
[13] = target: T5, UDP-N-acetylmuramoylalanine--D-glutamate ligase; experiment: Partial un-competitive inhibition of Escherichia coli MurD using ATP substrate by steady-state enzyme kinetics assay
[14] = target: T5, UDP-N-acetylmuramoylalanine--D-glutamate ligase; experiment: Partial non-competitive inhibition of Escherichia coli MurD using UMA substrate by steady-state enzyme kinetics assay

With `CCc1ccc(N2C(=O)NC(=O)/C(=C/c3cc(C)n(-c4cc(C(=O)O)cc(C(=O)O)c4)c3C)C2=O)cc1` the Activity [1] was 75%, the IC50 [2] was 330 µM and the Activity [3] was 81%. For the same compound, the Activity [4] was 74%.

Work on `Cc1cc(/C=C2/C(=O)NC(=O)N(c3ccc(Br)cc3)C2=O)c(C)n1-c1cc(C(=O)O)cc(C(=O)O)c1` yielded an Activity [1] of 60%, an IC50 [2] of 211 µM and an Activity [3] of 71%. The Activity [4] was 62%.

In the case of `Cc1cc(/C=C2/S/C(=N/c3ccccc3)NC2=O)c(C)n1-c1cc(C(=O)O)cc(C(=O)O)c1`, the IC50 [5] is reported as 298 µM, the IC50 [2] is reported as 494 µM and the IC50 [6] is reported as 206 µM. For the same compound, the IC50 [7] was 205 µM, the MIC [8] was over 256 µg/mL and the MIC [9] was 256 µg/mL (≈ 555 µM). The MIC [10] was over 256 µg/mL.

Work on `Cc1cc(/C=C2/C(=O)NC(=S)N(c3ccccc3)C2=O)c(C)n1-c1cc(C(=O)O)cc(C(=O)O)c1` yielded an Activity [1] of 84%, an Activity [4] of 75% and an MIC [8] of over 256 µg/mL. It also gave an MIC [9] of over 256 µg/mL and an MIC [10] of over 256 µg/mL.

`Cc1cc(/C=C2/S/C(=N/c3ccc(Br)cc3)NC2=O)c(C)n1-c1cc(C(=O)O)cc(C(=O)O)c1` showed an IC50 [5] of 102 µM, an IC50 [2] of 89 µM and an IC50 [6] of 66 µM. For the same compound, the IC50 [7] was 44 µM.

For `CCc1ccccc1N1C(=O)/C(=C\c2cc(C)n(-c3cc(C(=O)O)cc(C(=O)O)c3)c2C)C(=O)NC1=S`, the Activity [1] was 68% and the Activity [4] was 85%.

`Cc1cc(/C=C2/C(=O)NC(=S)N(c3cccc(Cl)c3Cl)C2=O)c(C)n1-c1cc(C(=O)O)cc(C(=O)O)c1` gave an Activity [1] of 86% and an Activity [4] of 96%.

In the case of `CCc1ccc(N2C(=O)/C(=C\c3cc(C)n(C4CCCCC4)c3C)C(=O)NC2=S)cc1`, the Activity [1] is reported as 75%, the Activity [11] is reported as 97% and the Activity [3] is reported as 100%. The Activity [4] was 92%.

With `CO/N=C(\C(=O)N[C@@H]1C(=O)N2C(C(=O)O)=C(COC(N)=O)CS[C@H]12)c1ccco1` [CEFUROXIME] the MIC [9] was 0.5 µg/mL (≈ 1.18 µM).

With `Cc1ccc(/N=C2\NC(=O)/C(=C\c3cc(C)n(-c4cc(C(=O)O)cc(C(=O)O)c4)c3C)S2)cc1` the IC50 [5] was 201 µM, the IC50 [2] was 245 µM and the IC50 [6] was 170 µM. The IC50 [7] was 107 µM.

`O=C1NC(=S)N(c2ccc(Cl)cc2)C(=O)/C1=C\c1cc2ccccc2[nH]1` gave an Activity [1] of 20%, an IC50 [2] of 44 µM and an Activity [3] of 71%. The Activity [4] was 77%.

`O=C1NC(=S)N(c2ccc(Br)cc2)C(=O)/C1=C\c1ccc2c(c1)OCO2` gave an Activity [1] of 95%, an Activity [11] of 81% and an Activity [3] of 91%. The Activity [4] was 120%.

`Cc1cc(/C=C2/S/C(=N/c3cccc(Br)c3)NC2=O)c(C)n1C1CCCCC1` showed an Activity [1] of 93%, an Activity [11] of 91% and an Activity [3] of 79%. The Activity [4] was 89%.

`Cc1cc(/C=C2/S/C(=N/c3ccc(F)cc3)NC2=O)c(C)n1C` gave an Activity [1] of 67%, an Activity [11] of 76% and an Activity [3] of 78%. The Activity [4] was 82%.

Work on GENTAMICIN yielded an MIC [8] of 8 µg/mL.

`Cc1cc(/C=C2/C(=O)NC(=S)N(c3ccccc3F)C2=O)c(C)n1-c1cc(C(=O)O)cc(C(=O)O)c1` showed an IC50 [5] of 344 µM, an IC50 [2] of 311 µM and an Activity [3] of 71%. For the same compound, the Activity [4] was 60%.

`O=C1NC(=S)N(c2ccc(F)cc2)C(=O)/C1=C\c1ccc2c(c1)OCO2` gave an Activity [1] of 81%, an Activity [11] of 97% and an Activity [3] of 102%. It also gave an Activity [4] of 108%.

`Cc1cc(/C=C2/S/C(=N/c3ccc(Cl)cc3)NC2=O)c(C)n1-c1cc(C(=O)O)cc(C(=O)O)c1` showed an IC50 [5] of 89 µM, an IC50 [2] of 93 µM and an IC50 [6] of 60 µM. The IC50 [7] was 41 µM, the Ki [12] was 21 µM and the Ki [13] was 39 µM. For the same compound, the Ki [14] was 29 µM.

For `Cc1cc(/C=C2/C(=O)NC(=S)N(c3cccc(Cl)c3)C2=O)c(C)n1-c1cc(C(=O)O)cc(C(=O)O)c1`, the Activity [1] was 78% and the Activity [4] was 80%.

`C/N=C1/S/C(=C/c2cc(C)n(-c3cc(C(=O)O)cc(C(=O)O)c3)c2C)C(=O)N1C` was tested, and the Activity [1] was 95%, the Activity [11] was 97% and the Activity [3] was 89%. It also gave an Activity [4] of 106%.

Work on `Cc1cc(/C=C2/SC(=S)NC2=O)c(C)n1-c1cc(C(=O)O)cc(C(=O)O)c1` yielded an Activity [1] of 89%, an IC50 [6] of 95 µM and an IC50 [7] of 133 µM. For the same compound, the MIC [8] was 128 µg/mL (≈ 318 µM), the MIC [9] was 256 µg/mL (≈ 636 µM) and the MIC [10] was over 256 µg/mL.

Work on `O=C1N/C(=N\c2ccc(Br)cc2)S/C1=C/c1c[nH]c2ccccc12` yielded an Activity [1] of 75%, an Activity [11] of 90% and an Activity [3] of 102%. It also gave an Activity [4] of 87%.

`COc1ccc(/N=C2\NC(=O)/C(=C\c3cc(C)n(-c4cc(C(=O)O)cc(C(=O)O)c4)c3C)S2)cc1` gave an IC50 [5] of 281 µM, an IC50 [2] of 303 µM and an IC50 [6] of 168 µM. It also gave an IC50 [7] of 172 µM.
